Measured values reported in patent publication US8802597B2, “Herbicidal pyrimidines” (E I du Pont de Nemours and Company, priority 2003, dated 2014).
Like-named read-outs stand apart in the source and are kept apart here.

Legend:
Assay type in all cases: in vivo
[1] = tested on: morningglory (Ipomoea coccinea); assay: Test C pre/postemergence; conditions: for pest or weed control at 62 g/ha / pest or weed control at 125 g/ha / pest or weed control at 250 g/ha / pest or weed control at 500 g/ha: Ipomoea
In short: (§1)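 Greenhouse pot test: seeds treated preemergence, or plants at 2–18 cm (1- to 4-leaf stage) treated postemergence, with compound in non-phytotoxic solvent plus surfactant. Visual rating versus untreated controls after 12–14 days, scale 0 (no effect) to 100 (complete control); dash means not tested.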

[2] = tested on: woolly cupgrass (Eriochloa villosa); assay: Test C pre/postemergence; conditions: for pest or weed control at 62 g/ha / pest or weed control at 125 g/ha / pest or weed control at 250 g/ha / pest or weed control at 500 g/ha: Eriochloa villosa
In short: as §1

[3] = tested on: eastern black nightshade (Solanum ptycanthum); assay: Test C pre/postemergence; conditions: Preemergence
In short: as §1

[4] = tested on: chickweed (Stellaria media); assay: Test C postemergence; conditions: for Plant response rating, Chickweed: scale 0 to 100
In short: as §1

[5] = Postemergence, 62 g ai/ha, scale 0 to 100 (0 no effect, 100 complete control)
[6] = Postemergence, 125 g ai/ha, scale 0 to 100 (0 no effect, 100 complete control)
[7] = Postemergence, 250 g ai/ha, scale 0 to 100
[8] = Postemergence, 500 g ai/ha, scale 0 to 100
[9] = Preemergence, 62 g ai/ha, scale 0 to 100, 0 no effect, 100 complete control
[10] = Preemergence, 125 g ai/ha, scale 0 to 100
[11] = Preemergence, 250 g ai/ha, scale 0 to 100
[12] = Preemergence, 500 g ai/ha, scale 0 to 100
[13] = 62 g ai/ha, scale 0 to 100, 0 no effect, 100 complete control
[14] = 62 g ai/ha, scale 0 to 100 (0 no effect, 100 complete control)
[15] = Preemergence, 31 g ai/ha, scale 0 to 100, 0 no effect, 100 complete control

Compound: Nc1nc(C2CC2)nc(C=NO)c1Br [Compound 27]
- Morningglory plant response rating [1, 5]: 20
- Morningglory plant response rating [1, 6]: 85
- Plant response rating, Morningglory [1, 7]: 85
- Plant response rating, Morningglory [1, 8]: 85
- Plant response rating, Morningglory [1, 9]: 0
- Plant response rating, Morningglory [1, 10]: 70
- Plant response rating, Morningglory [1, 11]: 95
- Plant response rating, Morningglory [1, 12]: 100
- Cupgrass, Woolly plant response rating [2, 5]: 0
- Cupgrass, Woolly plant response rating [2, 6]: 0
- Plant response rating, Cupgrass, Woolly [2, 7]: 0
- Plant response rating, Cupgrass, Woolly [2, 8]: 0
- Plant response rating, Cupgrass, Woolly [2, 9]: 0
- Plant response rating, Cupgrass, Woolly [2, 10]: 0
- Plant response rating, Cupgrass, Woolly [2, 11]: 10
- Plant response rating, Cupgrass, Woolly [2, 12]: 15
- Plant response rating, Nightshade [3, 13]: 0
- Plant response rating, Nightshade ([3]; 125 g ai/ha, scale 0 to 100): 70
- Plant response rating, Nightshade ([3]; 250 g ai/ha, scale 0 to 100): 100
- Plant response rating, Nightshade ([3]; 500 g ai/ha, scale 0 to 100): 100
- Chickweed plant response rating [4, 14]: 0
- Chickweed plant response rating ([4]; 125 g ai/ha, scale 0 to 100 (0 no effect, 100 complete control)): 0
- Plant response rating, Chickweed ([4]; 250 g ai/ha): 0
- Plant response rating, Chickweed ([4]; 500 g ai/ha): 0

Compound: CCOC(=O)c1nc(C2CC2)nc(N)c1Cl [Compound 4, ethyl 6-amino-5-chloro-2-cyclopropyl-4-pyrimidinecarboxylate]
- pest or weed control at 62 g/ha ([1]; post-emergence, Postemergence, 62 g ai/ha, scale 0 to 100 (0 no effect, 100 complete control), read-out: Morningglory plant response rating): 15%
- pest or weed control at 125 g/ha ([1]; post-emergence, Postemergence, 125 g ai/ha, scale 0 to 100 (0 no effect, 100 complete control), read-out: Morningglory plant response rating): 100%
- pest or weed control at 250 g/ha ([1]; post-emergence, Postemergence, 250 g ai/ha, scale 0 to 100, read-out: Plant response rating, Morningglory): 100%
- pest or weed control at 500 g/ha ([1]; post-emergence, Postemergence, 500 g ai/ha, scale 0 to 100, read-out: Plant response rating, Morningglory): 100%
- pest or weed control at 62 g/ha ([1]; pre-emergence, Preemergence, 62 g ai/ha, scale 0 to 100, 0 no effect, 100 complete control, read-out: Plant response rating, Morningglory): 100%
- pest or weed control at 125 g/ha ([1]; pre-emergence, Preemergence, 125 g ai/ha, scale 0 to 100, read-out: Plant response rating, Morningglory): 100%
- pest or weed control at 250 g/ha ([1]; pre-emergence, Preemergence, 250 g ai/ha, scale 0 to 100, read-out: Plant response rating, Morningglory): 100%
- pest or weed control at 500 g/ha ([1]; pre-emergence, Preemergence, 500 g ai/ha, scale 0 to 100, read-out: Plant response rating, Morningglory): 100%
- pest or weed control at 62 g/ha ([2]; post-emergence, Postemergence, 62 g ai/ha, scale 0 to 100 (0 no effect, 100 complete control), read-out: Cupgrass, Woolly plant response rating): 60%
- pest or weed control at 125 g/ha ([2]; post-emergence, Postemergence, 125 g ai/ha, scale 0 to 100 (0 no effect, 100 complete control), read-out: Cupgrass, Woolly plant response rating): 70%
- pest or weed control at 250 g/ha ([2]; post-emergence, Postemergence, 250 g ai/ha, scale 0 to 100, read-out: Plant response rating, Cupgrass, Woolly): 85%
- pest or weed control at 500 g/ha ([2]; post-emergence, Postemergence, 500 g ai/ha, scale 0 to 100, read-out: Plant response rating, Cupgrass, Woolly): 95%
- pest or weed control at 62 g/ha ([2]; pre-emergence, Preemergence, 62 g ai/ha, scale 0 to 100, 0 no effect, 100 complete control, read-out: Plant response rating, Cupgrass, Woolly): 0%
- pest or weed control at 125 g/ha ([2]; pre-emergence, Preemergence, 125 g ai/ha, scale 0 to 100, read-out: Plant response rating, Cupgrass, Woolly): 80%
- pest or weed control at 250 g/ha ([2]; pre-emergence, Preemergence, 250 g ai/ha, scale 0 to 100, read-out: Plant response rating, Cupgrass, Woolly): 95%
- pest or weed control at 500 g/ha ([2]; pre-emergence, Preemergence, 500 g ai/ha, scale 0 to 100, read-out: Plant response rating, Cupgrass, Woolly): 95%
- pest or weed control at 62 g/ha ([3]; Solanum, pre-emergence, 62 g ai/ha, scale 0 to 100, 0 no effect, 100 complete control, read-out: Plant response rating, Nightshade): 100%
- pest or weed control at 125 g/ha ([3]; Solanum, pre-emergence, 125 g ai/ha, scale 0 to 100, read-out: Plant response rating, Nightshade): 100%
- pest or weed control at 250 g/ha ([3]; Solanum, pre-emergence, 250 g ai/ha, scale 0 to 100, read-out: Plant response rating, Nightshade): 100%
- pest or weed control at 500 g/ha ([3]; Solanum, pre-emergence, 500 g ai/ha, scale 0 to 100, read-out: Plant response rating, Nightshade): 100%
- pest or weed control at 62 g/ha ([4]; Stellaria media, post-emergence, 62 g ai/ha, scale 0 to 100 (0 no effect, 100 complete control), read-out: Chickweed plant response rating): 30%
- pest or weed control at 125 g/ha ([4]; Stellaria media, post-emergence, 125 g ai/ha, scale 0 to 100, read-out: Plant response rating, Chickweed): 85%
- pest or weed control at 250 g/ha ([4]; Stellaria media, post-emergence, 250 g ai/ha, scale 0 to 100, read-out: Plant response rating, Chickweed): 100%
- pest or weed control at 500 g/ha ([4]; Stellaria media, post-emergence, 500 g ai/ha, scale 0 to 100, read-out: Plant response rating, Chickweed): 100%

Compound: CC(C)COC(=O)c1nc(C2CC2)nc(N)c1Br [Compound 17]
- Plant response rating (scale of 0 to 100), Morningglory ([1]; Postemergence, 31 g ai/ha): 95
- Morningglory plant response rating [1, 5]: 95
- Morningglory plant response rating [1, 6]: 100
- Plant response rating, Morningglory [1, 7]: 100
- Plant response rating, Morningglory [1, 15]: 70
- Plant response rating, Morningglory [1, 9]: 95
- Plant response rating, Morningglory [1, 10]: 100
- Plant response rating, Morningglory [1, 11]: 100
- Plant response rating (scale of 0 to 100), Cupgrass, Woolly ([2]; Postemergence, 31 g ai/ha): 0
- Cupgrass, Woolly plant response rating [2, 5]: 0
- Cupgrass, Woolly plant response rating [2, 6]: 0
- Plant response rating, Cupgrass, Woolly [2, 7]: 20
- Plant response rating, Cupgrass, Woolly [2, 15]: 0
- Plant response rating, Cupgrass, Woolly [2, 9]: 0
- Plant response rating, Cupgrass, Woolly [2, 10]: 20
- Plant response rating, Cupgrass, Woolly [2, 11]: 85
- Plant response rating, Nightshade [3, 13]: 80
- Plant response rating, Nightshade ([3]; 125 g ai/ha, scale 0 to 100): 95
- Plant response rating, Nightshade ([3]; 250 g ai/ha, scale 0 to 100): 100
- Plant response rating (scale of 0 to 100), Chickweed ([4]; 31 g ai/ha): 0
- Chickweed plant response rating [4, 14]: 0
- Plant response rating, Chickweed ([4]; 125 g ai/ha): 55
- Plant response rating, Chickweed ([4]; 250 g ai/ha): 85
